In ChEMBL document CHEMBL3507680, “University of Dundee, Gates Library screen for HepG2 cell viability” one finds cytotoxicity data, which are given here for 99 compounds.

The series is described as follows: Human HepG2 cell viability assay in 384 well format. The format is toxicity, cell-based. Further details: dose 125 nL, time 70.5 hour; cytotoxicity at 70.5 h: concentration not given beside the values. Particulars: HepG2 cells, read-out: Inhibition.
On to `CN1C(=O)CCCC12CCCN(C(=O)c1ccoc1)C2` (centres undefined), for which the cytotoxicity at 70.5 h is -10.6%.

In the case of `CC(C)[C@H](N)C(=O)N1CCSc2ccccc2C1`, the cytotoxicity at 70.5 h was -3.37%.

For `CC1CCC(O)(CN2CCN(CCNC(=O)C3CCC3)CC2)CC1` (centres undefined), the cytotoxicity at 70.5 h is -14.6%.

As for `CN(Cc1nnc(C2CC2)n1C)C1CCN(CCc2cccs2)C1` (centres undefined), the cytotoxicity at 70.5 h is -6.98%.

For the compound `Cn1c(=O)n(C)c2nc(Cl)c(CC(=O)c3ccccc3)n2c1=O`, the cytotoxicity at 70.5 h is -4.74%.

Take `CC(C)CCN1CCc2[nH]nc(C(=O)N3CCCC3C)c2C1` (centres undefined): the cytotoxicity at 70.5 h was -6.21%.

Take `O=C(NCc1cc[nH]n1)N1CCN(c2ncccn2)CC1`: the cytotoxicity at 70.5 h is -8.57%.

As to `NC(=O)CCN1CCC(C(=O)c2cc(F)ccc2F)CC1`, the cytotoxicity at 70.5 h was 15%.

Regarding `CN(C)CCOCC1CN(Cc2cccc(F)c2)Cc2nccn2C1` (centres undefined), the cytotoxicity at 70.5 h is -4.81%.

Take `FC(F)(F)C1CN(Cc2cnc3c(-c4ccccc4)cnn3c2)CCO1` (centres undefined): the cytotoxicity at 70.5 h is -7.58%.

Take `CCC(C(=O)N(C)C)N1CCC(c2nccn2Cc2cscn2)CC1` (centres undefined): the cytotoxicity at 70.5 h was -10%.

For the compound `c1cncc(CN2CC[C@H]3O[C@@H](COCC4CCOCC4)CC[C@H]32)c1`, the cytotoxicity at 70.5 h is -7.03%.

Regarding `CC(C)Cc1cc(C(=O)N2CCC(N3CCCC3)CC2)cc(O)n1`, the cytotoxicity at 70.5 h is -12.3%.

In the case of `CCc1nnc2n1CCN(C(=O)c1cnc3ccccc3n1)C2`, the cytotoxicity at 70.5 h was -4.54%.

In the case of `O=c1[nH]c2c(-c3ccccn3)nsc2c(=O)n1CC1CC1`, the cytotoxicity at 70.5 h was -14.6%.

`O=C1NCCN1C1CCN(Cc2coc(-c3ccc(F)cc3)n2)CC1`: the cytotoxicity at 70.5 h is -2.32%.

As for `CC(Cn1cc(Br)cn1)C(=O)Nc1ccn(C)n1` (centres undefined), the cytotoxicity at 70.5 h was found to be 7.88%.

Take `Cc1cnn(CC2CN(CC(=O)Nc3nncs3)CCO2)c1` (centres undefined): the cytotoxicity at 70.5 h is -1.53%.

For `Cc1nc(Nc2ccccn2)cc(C2CCCN2Cc2ncc[nH]2)n1` (centres undefined), the cytotoxicity at 70.5 h was -6.09%.

For the compound `Cc1ncccc1OCC(=O)N1CCN[C@H]2CS(=O)(=O)C[C@H]21`, the cytotoxicity at 70.5 h is -11.5%.

For `CN(Cc1ccc(N2CCOCC2)cc1)C(=O)Cn1cccnc1=O`, the cytotoxicity at 70.5 h is -3.91%.

In the case of `CCCn1ncc(CN2CCCC(C(=O)c3ccc(Cl)cc3C)C2)c1C` (centres undefined), the cytotoxicity at 70.5 h is -7.11%.

As to `CC(=O)N1CCC(C(=O)c2cc(C)cnc2N)CC1`, the cytotoxicity at 70.5 h is -15.5%.

For the compound `Cc1cccnc1CC(C)N(C)Cc1cccs1` (centres undefined), the cytotoxicity at 70.5 h was -13.2%.

Consider `Cc1cnc(C)c(N2CCN(CCCc3ccncc3)CC2)n1`, for which the cytotoxicity at 70.5 h was 6.37%.

For `C=Cc1ccc(C(=O)N2CCCC(Nc3ccc(F)c(F)c3)C2)cc1` (centres undefined), the cytotoxicity at 70.5 h stood at 26%.

Regarding `O=C(CNc1cccc(S(=O)(=O)C(F)F)c1)Nc1ccccc1`, the cytotoxicity at 70.5 h was -5.1%.

In the case of `Cc1nc(CN2CCN(c3cncc(Cl)n3)CC2)no1`, the cytotoxicity at 70.5 h was -9.09%.

As for `CNC(=O)N(Cc1c(F)cccc1F)C1CCCC1`, the cytotoxicity at 70.5 h was -3.72%.

`O=C(Nc1cccnc1)Nc1ccn(CC(F)F)n1`: the cytotoxicity at 70.5 h is 7.38%.

`Cc1oncc1C(=O)NCc1cc(=O)n2c(n1)CN(C)CCC2`: the cytotoxicity at 70.5 h was -14.9%.

In the case of `O=C(NCc1ccnc(OCC(F)(F)F)c1)NCC1CCOC1` (centres undefined), the cytotoxicity at 70.5 h is -15.8%.

`CN1CCN([C@H]2COC[C@@H]3CN(Cc4cccnc4)C[C@@H]32)CC1`: the cytotoxicity at 70.5 h was -8.25%.

Turning to `Cc1cc(CN(CCO)Cc2cc(Br)ccc2F)no1`, the cytotoxicity at 70.5 h was -17.4%.

As for `CN(C)S(=O)(=O)N1CCC(c2n[nH]cc2-c2ccnc(N)c2)C1` (centres undefined), the cytotoxicity at 70.5 h amounted to 5.75%.

Turning to `CC(C)n1cnc(-c2nc(C(=O)N3CCCC3)c3ccccn23)c1`, the cytotoxicity at 70.5 h was -2.79%.

As to `O=C(c1cc(Cl)c[nH]1)N1CCCC(c2cc(C(F)(F)F)[nH]n2)C1` (centres undefined), the cytotoxicity at 70.5 h was determined as 3.82%.

`CCn1nc(CC(C)C)cc1C(=O)NCCCOC`: the cytotoxicity at 70.5 h is -0.898%.

For the compound `Cc1nc(C(=O)N(C)CC(=O)N(C)C)nn1-c1ccccc1C(C)C`, the cytotoxicity at 70.5 h was 33.6%.

Regarding `CCn1cnnc1CNC(=O)NC(c1ccccc1)C1CCCC1` (centres undefined), the cytotoxicity at 70.5 h was -7.51%.

Regarding `O=C(NCc1cccnc1)c1nc2c(s1)CCCN2C(=O)C1CC1`, the cytotoxicity at 70.5 h was -3.72%.

For the compound `CC(c1ccccc1)N(C)C(=O)CNCCn1cccn1` (centres undefined), the cytotoxicity at 70.5 h is -10.3%.

On to `CCCc1cc(CN(C)C2CCSCC2)n[nH]1`, for which the cytotoxicity at 70.5 h is 0.588%.

As for `CC(C)c1noc(-c2ccc(N(C)C3CCOCC3)nc2)n1`, the cytotoxicity at 70.5 h was determined as 10.8%.

For `NC(=O)CN1CCC2(CC1)CC(=O)c1ccc3ccccc3c1O2`, the cytotoxicity at 70.5 h is -2.33%.

Take `O=C(NCc1ccncc1)C1=NOC2(CCCNC2)C1` (centres undefined): the cytotoxicity at 70.5 h came to 14.2%.

As for `c1ccc(SCCN2CCCC(Cn3ccnc3)C2)cc1` (centres undefined), the cytotoxicity at 70.5 h was -5.94%.

For the compound `CCS(=O)(=O)N1C[C@H]2C[C@H](C(=O)N(C)C)[C@@H](C1)O2`, the cytotoxicity at 70.5 h was -19.2%.

In the case of `Cc1cnn(CCNCc2ccc(OCc3ccccn3)cc2)c1`, the cytotoxicity at 70.5 h is 2.45%.

For the compound `CCOc1cccc2c1OCC(=O)N(c1ccc(N(C)C)cc1)C2`, the cytotoxicity at 70.5 h was -8.85%.

In the case of `O=C(c1ccc2c(c1)CCO2)N1CCN(c2ncccn2)CC1`, the cytotoxicity at 70.5 h stood at 2.69%.

Take `CC(CC1CC1)NCCCN1CCCN(C)CC1` (centres undefined): the cytotoxicity at 70.5 h was 7.35%.

`CNC(=O)[C@@H]1COC[C@H]2CN(C(=O)c3ccc(C)c(C)c3)C[C@H]21`: the cytotoxicity at 70.5 h is -7.79%.

As for `Cc1nc(N2CCC(O)(c3ccccc3)CC2)c2c(C)nn(C)c2n1`, the cytotoxicity at 70.5 h is -3.33%.

In the case of `Cn1ncc(NC(=O)c2noc3c2CCCC3)c1C(=O)N1CCCCC1`, the cytotoxicity at 70.5 h was -6.23%.

Consider `O=C(NCCO)NC(c1ccccc1)c1ccc2c(c1)CCCO2` (centres undefined), for which the cytotoxicity at 70.5 h was -12.9%.

`O=C(NCC1CC(=O)N(CCc2ccccc2)C1)c1c(F)cccc1F` (centres undefined): the cytotoxicity at 70.5 h came to 3.42%.

On to `COCCN(Cc1ccoc1)C(=O)c1c(F)cccc1Cl`, for which the cytotoxicity at 70.5 h was -0.424%.

`CCOc1ccc(CN2CCC(c3nc(C)cc(C)n3)C2)cc1CO` (centres undefined): the cytotoxicity at 70.5 h was 2.12%.

In the case of `CCn1nc2c(cc1=O)CN(CC(=O)Nc1nncs1)CC2`, the cytotoxicity at 70.5 h is -10.2%.

On to `CCCn1[nH]cc/c1=N\C(=O)CN1CCCC1Cn1cccn1` (centres undefined), for which the cytotoxicity at 70.5 h is -6.25%.

Turning to `CCN(Cc1ccoc1)C(=O)NC1CCN(CC2CC2)C1` (centres undefined), the cytotoxicity at 70.5 h was -5.67%.

As for `CN(Cc1ccco1)c1ccc(C(=O)NCCCc2ccccn2)cn1`, the cytotoxicity at 70.5 h worked out at 0.076%.

`COc1ccc(Nc2ncccc2C#N)cc1N1CCCC1=O`: the cytotoxicity at 70.5 h was 5.71%.

For the compound `CCN(CC)S(=O)(=O)N1CCCC(c2ccc(C(=O)O)cc2)C1` (centres undefined), the cytotoxicity at 70.5 h is -4.81%.

For `CCOCC1c2c(ncn2C(C)C)CCN1C(C)C` (centres undefined), the cytotoxicity at 70.5 h is -7.26%.

On to `COc1ccc(-c2n[nH]cc2CNC2CCN(C3CC3)CC2)cc1`, for which the cytotoxicity at 70.5 h is -2.67%.

In the case of `COCCN1CCC2(CC1)COc1ccccc1S(=O)(=O)N(C)C2`, the cytotoxicity at 70.5 h is 2.33%.

As for `Cc1ccc(-c2n[nH]cc2CNCC2CCS(=O)(=O)C2)o1` (centres undefined), the cytotoxicity at 70.5 h amounted to 11.2%.

In the case of `Cc1ccc(CN2CCO[C@H]3[C@@H](OCc4cccnc4)CC[C@@H]32)o1`, the cytotoxicity at 70.5 h is -14.9%.

For `O=C(NC[C@H]1OC[C@@H](NC2CCNCC2)[C@@H]1O)C1CCCC1`, the cytotoxicity at 70.5 h is -5.05%.

Take `CC1(C)CN(Cc2ccncc2)CCS1(=O)=O`: the cytotoxicity at 70.5 h came to 24.1%.

Regarding `Cc1csc2c(C3CCN(CCCOc4ccccc4)CC3)nc(C)n12`, the cytotoxicity at 70.5 h was -0.478%.

Take `c1cnc(-c2nn3c(CN4CCCCC4)nnc3s2)cn1`: the cytotoxicity at 70.5 h is -6.5%.

For `N#Cc1cccc(C(=O)NS(=O)(=O)c2ccc(C#N)c(Cl)c2)c1`, the cytotoxicity at 70.5 h was 27.3%.

Turning to `Cc1c(-c2nnc(SCC(=O)O)n2C(C)c2ccccc2)cnn1C` (centres undefined), the cytotoxicity at 70.5 h was -12.3%.

With `COc1cccc(N2CCN(Cc3nccc(OC)c3OC)CC2=O)c1`, the cytotoxicity at 70.5 h was -0.0493%.

For `CCc1ncc(C(=O)NCCNC(=O)Cc2ccc(F)cc2)s1`, the cytotoxicity at 70.5 h was -11.7%.

Consider `NC(=O)Cn1ccc(O)c(Cc2ccc(Cl)cc2Cl)c1=O`, for which the cytotoxicity at 70.5 h was 3.22%.

With `Cc1cc(C(F)(F)F)c2c(=O)n(Cc3cc(C)on3)n(C)c2n1`, the cytotoxicity at 70.5 h was -8.02%.

In the case of `FC(F)(F)c1cccc(N2CCC(NCc3cccnc3)CC2)c1`, the cytotoxicity at 70.5 h was found to be 26.9%.

As for `Cc1cc(C)n(CC2(CNC(=O)C(c3ccccc3F)N(C)C)CC2)n1` (centres undefined), the cytotoxicity at 70.5 h is -5.49%.

For the compound `CN1CC(=O)N(c2cccnc2)CC12CCN(C(=O)c1cccnc1)C2` (centres undefined), the cytotoxicity at 70.5 h turned out to be 2.34%.

As to `Cc1nc(C)n(CC2CCCN(CC(=O)Nc3cccnc3)C2)n1` (centres undefined), the cytotoxicity at 70.5 h was -0.663%.

As to `Cc1cccc(CN2CCN(C(=O)[C@@H]3CSCN3C)CC2)c1`, the cytotoxicity at 70.5 h is -13.3%.

In the case of `CC(C)(C)C(=O)NCCn1ccc(-c2ccncc2)n1`, the cytotoxicity at 70.5 h was -4.99%.

Turning to `Cc1noc(C)c1CNc1cccc(C(=O)N2CCCC(O)C2)c1` (centres undefined), the cytotoxicity at 70.5 h is -9.24%.

As to `Cc1nc(C)c(CCNC(=O)NC2CC(=O)N(C(C)(C)C)C2)s1` (centres undefined), the cytotoxicity at 70.5 h is -5.16%.

On to `CC(C)n1ccnc1CN1CCCN(C(=O)c2cscn2)CC1`, for which the cytotoxicity at 70.5 h is -2.53%.

Regarding `OC(CNc1ccc(Cl)cn1)CN1CCOCC1` (centres undefined), the cytotoxicity at 70.5 h was determined as 2.86%.

`Cn1cc(CN2C[C@H]3CCC[C@@]3(COc3ccccn3)C2)cn1`: the cytotoxicity at 70.5 h was -3.17%.

For the compound `Cc1ccc(CN2CC(C(=O)NCC3CC3)C3(CCOCC3)C2)s1` (centres undefined), the cytotoxicity at 70.5 h was -7.98%.

For `O=C(CN1C(=O)CCC1=O)NCc1cc(C2CC2)n(C2CCCC2)n1`, the cytotoxicity at 70.5 h was -2.61%.

Turning to `COc1cccc(CCN2C[C@H]3CCNCC[C@H]3S2(=O)=O)c1`, the cytotoxicity at 70.5 h was determined as 23.9%.

Take `Cc1cccc(CC2CCCN(C(=O)C3CCOCC3)C2)n1` (centres undefined): the cytotoxicity at 70.5 h is -8.54%.

For the compound `COCCc1noc(CNC2CCCN(c3cccnn3)C2)n1` (centres undefined), the cytotoxicity at 70.5 h stood at 11%.

With `CC(=O)Nc1ccc2nc(-c3nccn3C[C@@H]3CCCO3)ccc2c1`, the cytotoxicity at 70.5 h is -11.8%.

Consider `Cc1ncsc1CN(C)C(=O)C(CC(C)C)N1CCCCC1=O` (centres undefined), for which the cytotoxicity at 70.5 h was -2.15%.

Turning to `c1cnnc(N2CCCC2CNCCc2cccs2)c1` (centres undefined), the cytotoxicity at 70.5 h is -7.61%.
